Test results as given in ChEMBL document CHEMBL1201862, “PubChem BioAssay data set” (2004).
Activity calls are given as the source filed them.

How the values were obtained:
[1] = biological target: T1, Dual specificity protein phosphatase 3 (Homo sapiens, UniProt P51452); experiment: VHR1 phosphatase inhibitors, primary screen, biochemical, absorbance, uHTS (AID 1654)
[2] = biological target: T1, Dual specificity protein phosphatase 3; experiment: VHR1 phosphatase inhibitors, biochemical (AID 1878)
[3] = biological target: T2, Bifunctional protein GlmU (Mycobacterium tuberculosis, UniProt P9WMN3); experiment: Inhibitors of Mycobacterial Glucosamine-1-phosphate acetyl transferase (GlmU). Secondary screen.; design: species or system Mycobacterium tuberculosis H37Rv
T2 sequence (P9WMN3 whole entry): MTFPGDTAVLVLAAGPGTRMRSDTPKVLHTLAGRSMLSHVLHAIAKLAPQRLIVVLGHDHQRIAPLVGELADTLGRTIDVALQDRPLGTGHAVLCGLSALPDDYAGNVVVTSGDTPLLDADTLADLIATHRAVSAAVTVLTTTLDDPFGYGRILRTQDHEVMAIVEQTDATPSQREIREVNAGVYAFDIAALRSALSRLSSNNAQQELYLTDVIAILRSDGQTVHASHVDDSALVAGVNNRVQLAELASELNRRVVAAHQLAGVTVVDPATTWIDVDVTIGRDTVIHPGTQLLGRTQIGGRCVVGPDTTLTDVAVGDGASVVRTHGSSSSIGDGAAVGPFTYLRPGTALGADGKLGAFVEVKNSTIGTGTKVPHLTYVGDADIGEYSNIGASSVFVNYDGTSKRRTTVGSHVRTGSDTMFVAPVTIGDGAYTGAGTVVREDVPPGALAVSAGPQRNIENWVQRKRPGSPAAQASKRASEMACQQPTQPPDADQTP

[4] = biological target: T3, Dual specificity protein phosphatase 6 (Rattus norvegicus, UniProt Q64346); experiment: inhibition of rat DUSP6 enzyme activity – biochemical, in vitro, primary screen (AID 425)
T3 sequence (Q64346 whole entry): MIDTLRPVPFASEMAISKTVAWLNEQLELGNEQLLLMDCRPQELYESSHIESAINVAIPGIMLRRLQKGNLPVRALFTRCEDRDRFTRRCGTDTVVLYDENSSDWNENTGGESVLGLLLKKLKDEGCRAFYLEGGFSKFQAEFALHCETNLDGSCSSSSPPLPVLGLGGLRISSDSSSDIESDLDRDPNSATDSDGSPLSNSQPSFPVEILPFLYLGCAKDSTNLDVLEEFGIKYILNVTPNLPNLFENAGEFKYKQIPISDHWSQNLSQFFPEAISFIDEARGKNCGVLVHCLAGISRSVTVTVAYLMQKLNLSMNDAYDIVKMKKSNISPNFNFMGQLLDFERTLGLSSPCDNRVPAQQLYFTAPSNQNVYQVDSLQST

[5] = biological target: Induced myeloid leukemia cell differentiation protein Mcl-1 (Homo sapiens, UniProt Q07820); format: functional
[6] = biological target: Apoptotic protease-activating factor 1 (Homo sapiens, UniProt O14727); experiment: activation of Apaf-1 mediated apoptosis – fluorescent, uHTS hits, dose response (AID 588554); format: functional
[7] = biological target: T4, Small ubiquitin-related modifier 1 (Homo sapiens, UniProt P63165); experiment: SUMO1 protein interaction blockers, potency – biochemical, fluorescence polarization, uHTS hits, dose response (AID 624382); format: functional; details: read-out: IC50_Mean
[8] = biological target: T4, Small ubiquitin-related modifier 1; experiment: SUMO1 protein-protein binding blockers, potency – biochemical, FRET, dose response (AID 624383); format: functional; details: read-out: IC50_Mean
[9] = biological target: 1-phosphatidylinositol 4,5-bisphosphate phosphodiesterase gamma-1 (Homo sapiens, UniProt P19174); experiment: Counterscreen for inhibitors of phospholipase C isozymes (PLC-B3): Fluorescence-based biochemical high throughput dose response assay to identify inhibitors of phospholipase C isozymes (PLC-gamma1).
[10] = biological target: 1-phosphatidylinositol 4,5-bisphosphate phosphodiesterase beta-3 (Homo sapiens, UniProt Q01970); experiment: Fluorescence-based biochemical high throughput dose response assay to identify inhibitors of phospholipase C isozymes (PLC-B3).
[11] = biological target: Albumin (Bos taurus, UniProt P02769); experiment: Counterscreen for inhibitors of T-cell receptor (TCR)-CD3 interaction: Fluorescence-based biochemical high throughput dose response assay to identify inhibitors of T-cell receptor (TCR)-CD3 interaction using a TAMRA-labeled BSA probe.; format: functional
[12] = biological target: T5, Caspase-6 (Homo sapiens, UniProt P55212); experiment: inhibition of CASP6 peptide cleavage – biochemical, VEID-R110 fluorescence, cherry-pick, dose response (AID 720632)
T5 sequence (P55212 whole entry): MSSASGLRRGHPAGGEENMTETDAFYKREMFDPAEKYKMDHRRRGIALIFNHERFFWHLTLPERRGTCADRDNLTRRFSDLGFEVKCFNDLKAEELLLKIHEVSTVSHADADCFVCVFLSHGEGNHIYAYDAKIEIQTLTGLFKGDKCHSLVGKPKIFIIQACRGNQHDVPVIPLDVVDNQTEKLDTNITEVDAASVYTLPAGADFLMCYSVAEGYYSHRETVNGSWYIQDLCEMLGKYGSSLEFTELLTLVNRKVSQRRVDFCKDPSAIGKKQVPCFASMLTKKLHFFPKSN

[13] = biological target: Caspase-7 (Homo sapiens, UniProt P55210); experiment: caspase-7 enzyme inhibition, selectivity check – biochemical, DEVD-R110 fluorescence, cherry-pick, selectivity assay for caspase-6 inhibitor project, dose response (AID 743295); format: functional
[14] = HepG2 cell viability loss – cherry-picked samples, cytotoxicity control, dose response (AID 1053183); format: functional, cell-based
[15] = HEK293 cell viability loss – cherry-picked samples, cytotoxicity control, dose response (AID 1053185); format: functional, cell-based
[16] = A549 cell viability loss – cherry-picked samples, cytotoxicity control, dose response (AID 1053184); format: functional, cell-based
[17] = P. falciparum Dd2 growth inhibitors, dose response, SYBR Green, cherry-picked samples (AID 1159567); format: functional, cell-based
[18] = toxicity to human hepatoma HepG2 cells – cell-based, cherry-picked samples, cytotoxicity control, dose response (AID 1159577); format: functional
[19] = biological target: T6, Hexokinase HKDC1 (Homo sapiens, UniProt Q2TB90); experiment: inhibition of HKDC1 glucose phosphorylation – biochemical, W721R variant, dose response (AID 504729); format: functional
T6 sequence (Q2TB90 whole entry): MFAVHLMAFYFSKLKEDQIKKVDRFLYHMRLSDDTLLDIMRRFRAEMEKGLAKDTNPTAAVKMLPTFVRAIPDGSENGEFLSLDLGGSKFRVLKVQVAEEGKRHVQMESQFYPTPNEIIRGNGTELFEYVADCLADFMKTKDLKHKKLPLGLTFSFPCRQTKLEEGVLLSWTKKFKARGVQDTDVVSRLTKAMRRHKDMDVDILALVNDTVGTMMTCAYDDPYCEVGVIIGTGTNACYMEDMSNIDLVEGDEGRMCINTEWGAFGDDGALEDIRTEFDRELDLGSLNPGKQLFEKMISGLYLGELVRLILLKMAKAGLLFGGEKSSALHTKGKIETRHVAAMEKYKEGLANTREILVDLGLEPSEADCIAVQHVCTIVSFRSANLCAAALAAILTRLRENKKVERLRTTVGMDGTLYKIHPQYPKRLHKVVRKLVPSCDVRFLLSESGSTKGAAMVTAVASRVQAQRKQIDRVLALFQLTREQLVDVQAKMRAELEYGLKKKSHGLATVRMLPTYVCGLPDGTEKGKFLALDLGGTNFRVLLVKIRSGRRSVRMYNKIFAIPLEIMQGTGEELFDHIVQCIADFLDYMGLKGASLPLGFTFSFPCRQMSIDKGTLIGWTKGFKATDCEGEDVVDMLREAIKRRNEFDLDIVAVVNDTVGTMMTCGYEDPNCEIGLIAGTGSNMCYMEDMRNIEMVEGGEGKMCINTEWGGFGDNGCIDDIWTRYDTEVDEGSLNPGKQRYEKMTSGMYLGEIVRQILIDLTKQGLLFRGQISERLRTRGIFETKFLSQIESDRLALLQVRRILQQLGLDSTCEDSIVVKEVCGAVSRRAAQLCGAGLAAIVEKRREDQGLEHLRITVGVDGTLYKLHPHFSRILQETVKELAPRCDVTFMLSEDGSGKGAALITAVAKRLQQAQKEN

[20] = biological target: T7, Polyadenylate-binding protein 1 (Homo sapiens, UniProt P11940); experiment: MLLE binding blockers, Cy5 peptide tracer – biochemical, fluorescence polarization, Cy5-PAM2 peptide, secondary, miRNA deadenylation inhibitor project, dose response (AID 602260); format: functional; details: read-out: IC50_Mean
[21] = biological target: T7, Polyadenylate-binding protein 1; experiment: MLLE domain peptide-binding blockers, IC50 – biochemical, fluorescence polarization, FITC-PAM2 peptide, dose response (AID 602259); format: functional; details: read-out: IC50_Mean
[22] = biological target: Photoreceptor-specific nuclear receptor (Homo sapiens, UniProt Q9Y5X4); format: functional, cell-based;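 note: CHO-S cells with Gal4-NCOR and VP16-NR2E3 two-hybrid luciferase reporter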
[23] = biological target: Paired box protein Pax-8 (Homo sapiens, UniProt Q06710); experiment: PAX8 transcriptional activity inhibition in RMG-I – RMG-I cells, luciferase, cherry-pick, dose response (AID 687027); format: functional, cell-based;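 note: luciferase reporter driven by Pax8 target thyroperoxidase promoter measured by SteadyGlo luminescence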
[24] = biological target: T8, Histone-lysine N-methyltransferase NSD2 (Homo sapiens, UniProt O96028); format: biochemical
T8 sequence (O96028 whole entry): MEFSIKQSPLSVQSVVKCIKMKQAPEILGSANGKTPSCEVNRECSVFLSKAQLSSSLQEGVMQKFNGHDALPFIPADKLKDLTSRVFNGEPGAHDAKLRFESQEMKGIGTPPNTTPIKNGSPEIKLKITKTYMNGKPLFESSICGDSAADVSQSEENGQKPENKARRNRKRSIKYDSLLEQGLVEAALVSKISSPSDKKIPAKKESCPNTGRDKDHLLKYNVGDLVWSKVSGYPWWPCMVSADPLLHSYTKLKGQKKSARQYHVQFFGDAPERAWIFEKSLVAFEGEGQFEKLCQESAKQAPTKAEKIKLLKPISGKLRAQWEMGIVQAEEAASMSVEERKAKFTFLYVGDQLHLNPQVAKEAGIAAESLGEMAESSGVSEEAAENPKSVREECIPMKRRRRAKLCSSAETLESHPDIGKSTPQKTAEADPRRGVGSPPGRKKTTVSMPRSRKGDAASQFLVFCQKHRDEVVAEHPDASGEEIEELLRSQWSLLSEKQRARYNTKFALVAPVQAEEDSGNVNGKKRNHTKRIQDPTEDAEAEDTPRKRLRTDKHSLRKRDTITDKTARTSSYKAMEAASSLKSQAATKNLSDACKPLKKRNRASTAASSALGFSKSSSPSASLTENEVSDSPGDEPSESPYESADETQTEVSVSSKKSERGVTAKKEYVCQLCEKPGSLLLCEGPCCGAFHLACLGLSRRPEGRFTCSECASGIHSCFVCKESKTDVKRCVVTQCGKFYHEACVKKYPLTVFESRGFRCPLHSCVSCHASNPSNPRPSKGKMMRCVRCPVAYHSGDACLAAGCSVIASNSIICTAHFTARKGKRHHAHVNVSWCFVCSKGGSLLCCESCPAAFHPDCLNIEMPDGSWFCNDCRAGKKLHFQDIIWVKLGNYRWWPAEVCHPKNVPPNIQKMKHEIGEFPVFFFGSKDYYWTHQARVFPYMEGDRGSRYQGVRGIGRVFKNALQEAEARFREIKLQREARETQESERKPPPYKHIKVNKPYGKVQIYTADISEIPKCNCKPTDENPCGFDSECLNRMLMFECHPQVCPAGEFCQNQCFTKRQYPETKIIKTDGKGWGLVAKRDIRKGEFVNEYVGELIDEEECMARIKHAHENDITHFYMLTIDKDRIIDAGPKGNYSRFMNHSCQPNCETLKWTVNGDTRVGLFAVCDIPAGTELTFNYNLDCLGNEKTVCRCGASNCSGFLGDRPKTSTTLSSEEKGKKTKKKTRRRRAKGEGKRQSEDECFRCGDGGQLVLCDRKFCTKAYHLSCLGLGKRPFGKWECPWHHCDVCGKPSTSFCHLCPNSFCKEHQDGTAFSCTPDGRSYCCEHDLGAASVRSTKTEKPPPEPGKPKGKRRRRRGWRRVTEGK

[25] = biological target: Tyrosyl-DNA phosphodiesterase 2 (Homo sapiens, UniProt O95551); experiment: potency against TDP2 phosphodiesterase activity – biochemical, epi absorbance, IC50, dose response (AID 743297)
[26] = general cell-killing toxicity readout – plate reader, dry powder samples, cytotoxicity control for PAX8 inhibitor project, dose response (AID 743021); format: functional, cell-based

T4 sequence (P63165 whole entry): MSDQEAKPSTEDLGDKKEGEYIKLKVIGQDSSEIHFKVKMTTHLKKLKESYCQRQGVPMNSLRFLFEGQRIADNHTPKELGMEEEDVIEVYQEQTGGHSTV
T7 sequence (P11940 whole entry, the tested form may be a part): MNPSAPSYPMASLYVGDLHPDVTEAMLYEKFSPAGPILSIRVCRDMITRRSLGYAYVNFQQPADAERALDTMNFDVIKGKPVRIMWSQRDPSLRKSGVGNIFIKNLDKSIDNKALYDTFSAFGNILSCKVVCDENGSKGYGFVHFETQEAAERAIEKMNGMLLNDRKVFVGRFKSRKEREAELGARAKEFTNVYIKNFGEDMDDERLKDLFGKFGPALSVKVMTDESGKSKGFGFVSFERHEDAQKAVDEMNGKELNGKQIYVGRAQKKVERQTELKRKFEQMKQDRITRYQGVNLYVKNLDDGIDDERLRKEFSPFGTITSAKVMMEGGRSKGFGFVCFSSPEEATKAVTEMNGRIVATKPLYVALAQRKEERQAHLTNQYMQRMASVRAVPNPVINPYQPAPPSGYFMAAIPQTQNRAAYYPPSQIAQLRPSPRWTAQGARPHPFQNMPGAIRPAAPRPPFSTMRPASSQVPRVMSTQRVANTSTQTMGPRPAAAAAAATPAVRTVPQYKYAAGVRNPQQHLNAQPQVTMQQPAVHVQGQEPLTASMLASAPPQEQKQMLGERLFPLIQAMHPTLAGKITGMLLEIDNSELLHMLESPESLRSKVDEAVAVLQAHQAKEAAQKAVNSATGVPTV
T1 sequence (P51452 whole entry): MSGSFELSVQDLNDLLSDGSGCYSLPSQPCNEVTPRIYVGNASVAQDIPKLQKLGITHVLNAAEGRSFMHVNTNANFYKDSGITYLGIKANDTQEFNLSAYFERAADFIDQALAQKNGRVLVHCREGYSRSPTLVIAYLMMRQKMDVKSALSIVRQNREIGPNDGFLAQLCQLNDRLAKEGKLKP
Apoptotic protease-activating factor 1, sequence (O14727 whole entry): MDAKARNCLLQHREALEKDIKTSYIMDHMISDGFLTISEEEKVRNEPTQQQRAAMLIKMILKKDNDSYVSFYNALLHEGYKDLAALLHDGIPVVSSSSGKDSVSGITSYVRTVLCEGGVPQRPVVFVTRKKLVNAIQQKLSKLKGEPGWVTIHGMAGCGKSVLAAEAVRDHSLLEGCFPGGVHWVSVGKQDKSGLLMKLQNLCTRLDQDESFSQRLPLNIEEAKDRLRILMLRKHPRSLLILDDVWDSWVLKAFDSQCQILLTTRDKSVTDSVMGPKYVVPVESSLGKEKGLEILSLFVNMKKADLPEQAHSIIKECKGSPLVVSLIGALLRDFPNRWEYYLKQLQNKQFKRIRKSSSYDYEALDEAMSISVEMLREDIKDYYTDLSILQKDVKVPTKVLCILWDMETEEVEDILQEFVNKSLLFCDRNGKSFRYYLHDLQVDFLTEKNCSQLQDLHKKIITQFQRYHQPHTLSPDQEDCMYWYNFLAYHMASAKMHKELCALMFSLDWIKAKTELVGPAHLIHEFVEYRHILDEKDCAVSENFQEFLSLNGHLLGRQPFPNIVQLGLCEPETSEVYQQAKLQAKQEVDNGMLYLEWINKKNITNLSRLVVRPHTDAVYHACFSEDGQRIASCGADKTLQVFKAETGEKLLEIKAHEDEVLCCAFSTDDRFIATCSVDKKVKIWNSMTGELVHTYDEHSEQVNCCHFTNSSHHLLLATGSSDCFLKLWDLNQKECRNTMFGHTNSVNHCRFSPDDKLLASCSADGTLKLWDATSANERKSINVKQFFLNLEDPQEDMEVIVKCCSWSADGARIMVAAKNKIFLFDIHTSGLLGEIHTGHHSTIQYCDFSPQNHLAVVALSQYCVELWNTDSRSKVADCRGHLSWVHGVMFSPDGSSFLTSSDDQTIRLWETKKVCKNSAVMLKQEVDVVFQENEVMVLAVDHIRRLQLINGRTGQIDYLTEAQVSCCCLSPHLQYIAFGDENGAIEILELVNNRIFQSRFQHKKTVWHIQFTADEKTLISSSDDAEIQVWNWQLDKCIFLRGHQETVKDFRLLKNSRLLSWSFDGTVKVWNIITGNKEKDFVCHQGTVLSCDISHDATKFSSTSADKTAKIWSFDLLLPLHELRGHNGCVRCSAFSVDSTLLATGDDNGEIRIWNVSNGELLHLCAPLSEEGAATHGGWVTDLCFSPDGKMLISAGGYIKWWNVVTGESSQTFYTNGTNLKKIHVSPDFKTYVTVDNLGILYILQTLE
Induced myeloid leukemia cell differentiation protein Mcl-1, sequence (Q07820 whole entry): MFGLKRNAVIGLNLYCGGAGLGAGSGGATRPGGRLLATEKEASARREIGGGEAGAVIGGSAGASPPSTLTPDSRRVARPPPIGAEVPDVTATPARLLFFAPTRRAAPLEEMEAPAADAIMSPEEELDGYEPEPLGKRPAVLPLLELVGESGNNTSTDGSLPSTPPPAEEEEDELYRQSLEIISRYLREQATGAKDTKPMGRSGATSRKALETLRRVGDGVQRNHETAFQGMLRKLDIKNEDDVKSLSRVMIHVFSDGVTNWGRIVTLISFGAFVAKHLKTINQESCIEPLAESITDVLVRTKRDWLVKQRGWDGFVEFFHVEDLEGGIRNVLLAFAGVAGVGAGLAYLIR
1-phosphatidylinositol 4,5-bisphosphate phosphodiesterase gamma-1, sequence (P19174 whole entry): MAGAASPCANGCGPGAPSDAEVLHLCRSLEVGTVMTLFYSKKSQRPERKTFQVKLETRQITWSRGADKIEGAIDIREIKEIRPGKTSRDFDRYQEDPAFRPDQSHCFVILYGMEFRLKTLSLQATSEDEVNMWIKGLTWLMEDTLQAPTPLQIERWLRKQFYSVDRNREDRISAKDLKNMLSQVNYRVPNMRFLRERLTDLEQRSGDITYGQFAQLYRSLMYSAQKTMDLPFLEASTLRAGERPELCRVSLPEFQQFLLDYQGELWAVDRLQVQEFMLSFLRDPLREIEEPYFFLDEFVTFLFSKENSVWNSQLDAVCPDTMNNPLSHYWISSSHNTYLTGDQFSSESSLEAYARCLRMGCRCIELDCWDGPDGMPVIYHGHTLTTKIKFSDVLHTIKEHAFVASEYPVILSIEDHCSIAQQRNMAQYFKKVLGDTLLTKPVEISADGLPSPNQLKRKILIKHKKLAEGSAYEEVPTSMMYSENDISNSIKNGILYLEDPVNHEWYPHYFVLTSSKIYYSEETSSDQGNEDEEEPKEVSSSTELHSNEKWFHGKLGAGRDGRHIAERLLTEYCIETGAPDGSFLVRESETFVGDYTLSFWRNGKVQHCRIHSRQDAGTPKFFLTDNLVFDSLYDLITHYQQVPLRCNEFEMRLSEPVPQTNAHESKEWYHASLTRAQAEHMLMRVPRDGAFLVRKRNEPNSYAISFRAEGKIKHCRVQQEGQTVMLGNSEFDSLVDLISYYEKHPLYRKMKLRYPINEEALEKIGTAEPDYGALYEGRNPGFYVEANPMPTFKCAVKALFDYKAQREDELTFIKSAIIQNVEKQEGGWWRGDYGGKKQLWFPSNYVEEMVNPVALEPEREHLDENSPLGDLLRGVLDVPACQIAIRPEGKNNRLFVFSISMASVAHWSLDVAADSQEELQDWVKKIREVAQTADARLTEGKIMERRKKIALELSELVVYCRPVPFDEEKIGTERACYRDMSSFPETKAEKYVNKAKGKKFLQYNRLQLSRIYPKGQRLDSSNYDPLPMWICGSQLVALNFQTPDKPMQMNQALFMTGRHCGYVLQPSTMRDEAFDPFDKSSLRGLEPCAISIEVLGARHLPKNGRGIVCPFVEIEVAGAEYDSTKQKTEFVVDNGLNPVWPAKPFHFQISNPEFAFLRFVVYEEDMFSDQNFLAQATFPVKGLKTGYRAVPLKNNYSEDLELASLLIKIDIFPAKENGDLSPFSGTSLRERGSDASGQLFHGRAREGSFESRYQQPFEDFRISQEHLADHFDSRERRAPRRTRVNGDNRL
1-phosphatidylinositol 4,5-bisphosphate phosphodiesterase beta-3, sequence (Q01970 whole entry): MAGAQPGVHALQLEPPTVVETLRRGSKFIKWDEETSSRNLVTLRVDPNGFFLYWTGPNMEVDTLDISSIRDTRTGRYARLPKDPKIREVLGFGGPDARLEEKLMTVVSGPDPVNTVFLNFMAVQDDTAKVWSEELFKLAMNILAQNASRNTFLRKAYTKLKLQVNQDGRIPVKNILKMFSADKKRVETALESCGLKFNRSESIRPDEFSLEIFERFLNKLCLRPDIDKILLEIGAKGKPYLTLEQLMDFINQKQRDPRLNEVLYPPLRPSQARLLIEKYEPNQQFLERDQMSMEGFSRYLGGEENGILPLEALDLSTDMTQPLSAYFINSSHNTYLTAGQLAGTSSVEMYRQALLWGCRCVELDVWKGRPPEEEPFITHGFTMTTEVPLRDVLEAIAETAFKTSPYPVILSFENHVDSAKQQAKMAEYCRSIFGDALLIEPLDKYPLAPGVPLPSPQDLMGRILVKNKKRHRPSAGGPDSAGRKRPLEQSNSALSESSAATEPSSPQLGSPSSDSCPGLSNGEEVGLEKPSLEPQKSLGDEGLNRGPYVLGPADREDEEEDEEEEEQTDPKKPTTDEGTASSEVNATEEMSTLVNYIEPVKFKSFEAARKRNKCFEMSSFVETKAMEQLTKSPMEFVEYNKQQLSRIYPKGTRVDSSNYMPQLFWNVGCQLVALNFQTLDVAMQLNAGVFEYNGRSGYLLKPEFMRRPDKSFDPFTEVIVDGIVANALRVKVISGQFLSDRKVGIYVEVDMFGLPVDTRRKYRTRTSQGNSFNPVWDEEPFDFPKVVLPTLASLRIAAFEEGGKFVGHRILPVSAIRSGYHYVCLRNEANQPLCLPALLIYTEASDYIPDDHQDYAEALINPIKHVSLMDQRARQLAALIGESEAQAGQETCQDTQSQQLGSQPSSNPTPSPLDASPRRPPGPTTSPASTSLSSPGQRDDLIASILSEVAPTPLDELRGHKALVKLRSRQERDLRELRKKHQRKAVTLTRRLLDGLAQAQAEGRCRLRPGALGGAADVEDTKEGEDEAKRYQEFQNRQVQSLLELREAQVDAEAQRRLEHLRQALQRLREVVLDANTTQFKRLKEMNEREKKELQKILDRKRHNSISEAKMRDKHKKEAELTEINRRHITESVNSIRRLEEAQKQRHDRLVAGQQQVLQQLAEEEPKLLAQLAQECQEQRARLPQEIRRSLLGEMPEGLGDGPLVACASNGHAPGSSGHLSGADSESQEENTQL

With `O=C(O)c1cccc(-c2ccc(/C=c3/sc4nc5ccccc5n4c3=O)o2)c1` the IC50 [1] was 4.98 µM (active), the IC50 [2] was 2.27 µM (active) and the IC50 [3] was 101 µM (active). For the same compound, the IC50 [4] was 118 µM (not active), the IC50 [5] was 1.74 µM (active) and the EC50 [6] was 9.48 µM (active). The IC50 [7] was > 66.6 µM (inactive), the IC50 [8] was 8.7 µM (active) and the IC50 [9] was > 122 µM (inactive). For the same compound, the IC50 [10] was > 122 µM (inactive).

For `O=c1c(CO)cc(CO)cc(CO)c1O`, the IC50 [11] was > 94 µM (inactive), the AC50 [12] was 2.22 µM (active) and the AC50 [13] was > 70 µM (inactive).

With `C(=C\c1ccc([C@@H]2[C@@H]3CN(Cc4ccc5c(c4)OCO5)C[C@H]2N3)cc1)/c1ccccc1` the AC50 [14] was 17.1 µM (active), the AC50 [15] was 17 µM (active) and the AC50 [16] was > 12 µM (inactive). For the same compound, the AC50 [17] was 6.09 µM (active) and the AC50 [18] was 9.8 µM (active).

With `NC1=C(Br)C(=O)c2ncccc2C1=O` the IC50 [19] was 8.91 µM (active), the IC50 [20] was > 66 µM (inactive) and the IC50 [21] was > 66 µM (inactive). For the same compound, the IC50 [22] was 2.48 µM (active), the AC50 [23] was 1.22 µM (active) and the AC50 [24] was 0.164 µM (active). The IC50 [25] was 2.66 µM (active) and the AC50 [26] was 10.1 µM (active).
